Here are results for eight compounds from patent US8128948B1, “Compositions and methods for attracting Anastrepha species” (The United States of America as represented by the …, priority 2007, dated 2012).

Holding throughout (format): physicochemical
Series [1] can be described thus: Batch hydrolysis of suspensolide in aqueous buffers. The protocol:
Buffers at 25° C. were transferred (1 mL) to 9-mm amber crimp-top (Teflon®-sealed) 2-mL GC vials. Suspensolide in anhydrous acetonitrile or methanol (50 μL) was added to afford initial aqueous concentrations of 0.9 mM and the solution was rapidly mixed for 10 s on a vortex Genie® mixer. Aqueous samples (10 μL) were removed with a 25-μL syringe and combined with 2 μL ACN containing 6 μg (+)-sclareolide as an external standard for HPLC.
GC was used to quantify lactones at the conclusion of each experiment. Hexane (1 mL), containing […] of tetradecane as an internal standard, was added to the vials and extractable analytes were removed from the water by rapidly mixing for 2 min on a vortex Genie® mixer. Emulsions were broken with NaCl, after which the hexane layer was transferred to vials for analysis by GC. The remaining solution was concentrated to dryness via Speed Vac® and dissolved in a methanolic solution of diazomethane. Extraction with pentane and subsequently H2O (0.5 mL each) yielded methyl esters amenable to GC within the organic phase. Initial suspensolide concentrations were measured (quadruplicate) via analogous introduction into 1 mL hexane+internal standard.

The nature of series [2]: 1H-NMR monitored hydrolysis of suspensolide. The conditions noted are these: 36 μL acetonitrile-d3 + 4 μl D2O; 27° C. The protocol:
Experiments were performed in a 2.0 mm capillary at 27° C. using a Bruker Avance 500 Console, Magnex 11.75 T/54 mm Magnet, and a 2.5 mm TXI probe (non spun). Spectra (64 scans) were acquired with 2.5 acquisition time and processed with ½ Hz line broadening.
Results and Discussion: Pentane extracts of male salivary glands that were added to water (pH 5.5) and rapidly stirred for 5 min at 25° C. yielded products within both phases that matched those obtained from pentane extraction of crops and oral secretions (FIG. 5). ^1H-Nuclear Magnetic Resonance (NMR) spectroscopy was then employed to directly observe the hydrolysis; the original vinyl and methyl proton signals disappeared over 3 h after a 4 μL addition of D2O to suspensolide in 36 μL acetonitrile-d3 (FIG. 6). In comparison, the loss of suspensolide in batch hydrolysis studies occurred much more rapidly (<2 min) over pH 3-10.

Series [3] in a line: Hydrolysis of the dehydration analog. The following applies: for distribution of products (rel. % of loss; x±s; n=6): hydrolysis of the dehydration analog, 3 day, pH 5.5, 35° C.

As for `C/C1=C/COC(=O)C/C=C(/C)CCC1` [suspensolide, (3E,8E)-suspensolide], in series [1] (FIG. 4), the “level of 7a-epimer “cis-fused” equivalents among hydrolysis products” value was below 5%. The “epianastrephin to anastrephin ratio of γ-hydroxy acids formed by hydrolysis” value in series [1] (in 18OH2 at pH 5, FIG. 13) is around 2.5. The “time for loss of suspensolide in batch hydrolysis” value in series [1] (over pH 3-10) is below 2 min. Moreover, the “time for hydrolysis to product distribution III>II>>IV>>>I” value in series [1] (pH 5-6 and 25° C.) is below 2 min. Further, in series [1] (pathways II and III, FIG. 4), the “epianastrephin to anastrephin product ratio of hydrolysis” value is on record as around 2.5. The “time over which suspensolide was hydrolyzed (1H-NMR)” value in series [2] is listed as around 3 h.
Consider `C=CC1(C)CCCC2(C)OC(=O)CC12` (stereo not shown) [epianastrephin, reference compound], for which the “distribution of products (rel. % of loss; x±s; n=6)” value in series [3] worked out at 1.7±1.2%.
On the same count and under the same terms, with `C=C[C@@]1(C)CCC[C@]2(C)OC(=O)C[C@@H]12` [anastrephin, reference compound] the figure was 17.3±4.2%; with `C=CC1(C)CCCC2(C)OC(=O)CC12` (stereo not drawn) [“cis-fused” epianastrephin], 1.1±0.5%.
Regarding `C=CC1(C)CCCC(C)=C1CC(=O)O` (stereo not shown) [dehydration analog, 2,6-dimethyl-6-vinyl-cyclohexeneacetic acid], the loss on hydrolysis in series [3] (3 day time course, pH 5.5 and 35° C.) is recorded as around 15%.
Consider “γ-hydroxy acid of epianastrephin [epianastrephin γ-hydroxy acid]”, for which, in series [3], the “distribution of products (rel. % of loss; x±s; n=6)” value is listed as 3.6±2.3%.
For “γ-hydroxy acid of anastrephin [anastrephin γ-hydroxy acid]”, in series [3], the “distribution of products (rel. % of loss; x±s; n=6)” value is given as 38.6±5.1%.
Still for that read-out and setting: with `C=CC1(C)CCCC2(C)OC(=O)CC12` (stereo not drawn) [“cis-fused” anastrephin] the figure was 5.8±4.2%.
